These results are taken from ChEMBL document CHEMBL4419173, “Small-molecule inhibitors targeting g-protein-coupled rho guanine nucleotide exchange factors” (2014).

Structures are written as SMILES. Active and inactive are the calls of the source. No cut-off for these calls is given here.

Common to all, as to type: cell-based
Data set [1] deals with Rho GEF 11/Transforming protein RhoA (Homo sapiens) (UniProt P61586+O15085). Put plainly: Inhibition of FLAG-tagged human PDZ RhoGEF DH-PH module expressed in mouse NIH/3T3 cells assessed as reduction in human full length RhoA (1 to 193 residues) interaction with PDZ RhoGEF at 30 to 50 uM incubated for 1 hr by Western blot analysis based GST-RhoA pull-down assay. For orientation: In western blotting, separated proteins are transferred to a membrane and probed.

The test system of data set [2] is Rho-associated protein kinase 2 (Homo sapiens), O75116 [UNDEFINED MUTATION]. Put plainly: Inhibition of constitutively active ROCK2 mutant (unknown origin) expressed in mouse NIH/3T3 cells assessed as reduction in 10% calf serum-induced actin stress fiber formation at 30 uM by rhodamine-phalloidin staining based assay.
In data set [3] the test system is MCF7. Put plainly: Inhibition of RhoGEF in human MCF7 cells derived mammospheres assessed as inhibition of 10% calf serum-induced RhoA-GTP formation at 10 uM incubated for 24 hrs by densitometry relative to control.
Data set [4] deals with NIH3T3. Put plainly: Toxicity in mouse NIH/3T3 cells assessed as induction of apoptosis at 10 to 50 uM incubated for 24 hrs by Annexin-V/7-AAD staining based FACS analysis. The note with it: nih3t3, 24 h. (Flow cytometry measures light scatter and fluorescence of single cells or particles in a stream.)
Data set [5] has as its target Proto-oncogene DBL/Transforming protein RhoA (Homo sapiens) (UniProt P61586+P10911). Put plainly: Inhibition of GST-tagged human DBL RhoGEF DH-PH module expressed in mouse NIH/3T3 cells assessed as reduction in human full length RhoA (1 to 193 residues) interaction with DBL RhoGEF at 10 to 50 uM incubated for 1 hr by Western blot analysis based His-RhoA pull-down assay.

In data set [6] the test system is Transforming protein RhoA (Homo sapiens), P61586 [Q63L]. Put plainly: Inhibition of constitutively active RhoA Q63L mutant (unknown origin) expressed in mouse NIH/3T3 cells assessed as reduction in 10% calf serum-induced phospho-MLC formation at 50 uM incubated for 24 hrs by densitometry.
Chain of Transforming protein RhoA (Homo sapiens), P61586 [Q63L] (P61586 whole entry Q63L): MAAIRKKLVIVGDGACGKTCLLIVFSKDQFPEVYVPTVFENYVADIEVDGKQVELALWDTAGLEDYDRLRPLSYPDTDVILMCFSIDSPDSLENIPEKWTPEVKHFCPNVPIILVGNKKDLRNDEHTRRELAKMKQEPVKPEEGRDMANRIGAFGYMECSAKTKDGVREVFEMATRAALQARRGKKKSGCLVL

Chain of Rho-associated protein kinase 2 (Homo sapiens), O75116 [UNDEFINED MUTATION] (O75116 whole entry, looked up, change not shown): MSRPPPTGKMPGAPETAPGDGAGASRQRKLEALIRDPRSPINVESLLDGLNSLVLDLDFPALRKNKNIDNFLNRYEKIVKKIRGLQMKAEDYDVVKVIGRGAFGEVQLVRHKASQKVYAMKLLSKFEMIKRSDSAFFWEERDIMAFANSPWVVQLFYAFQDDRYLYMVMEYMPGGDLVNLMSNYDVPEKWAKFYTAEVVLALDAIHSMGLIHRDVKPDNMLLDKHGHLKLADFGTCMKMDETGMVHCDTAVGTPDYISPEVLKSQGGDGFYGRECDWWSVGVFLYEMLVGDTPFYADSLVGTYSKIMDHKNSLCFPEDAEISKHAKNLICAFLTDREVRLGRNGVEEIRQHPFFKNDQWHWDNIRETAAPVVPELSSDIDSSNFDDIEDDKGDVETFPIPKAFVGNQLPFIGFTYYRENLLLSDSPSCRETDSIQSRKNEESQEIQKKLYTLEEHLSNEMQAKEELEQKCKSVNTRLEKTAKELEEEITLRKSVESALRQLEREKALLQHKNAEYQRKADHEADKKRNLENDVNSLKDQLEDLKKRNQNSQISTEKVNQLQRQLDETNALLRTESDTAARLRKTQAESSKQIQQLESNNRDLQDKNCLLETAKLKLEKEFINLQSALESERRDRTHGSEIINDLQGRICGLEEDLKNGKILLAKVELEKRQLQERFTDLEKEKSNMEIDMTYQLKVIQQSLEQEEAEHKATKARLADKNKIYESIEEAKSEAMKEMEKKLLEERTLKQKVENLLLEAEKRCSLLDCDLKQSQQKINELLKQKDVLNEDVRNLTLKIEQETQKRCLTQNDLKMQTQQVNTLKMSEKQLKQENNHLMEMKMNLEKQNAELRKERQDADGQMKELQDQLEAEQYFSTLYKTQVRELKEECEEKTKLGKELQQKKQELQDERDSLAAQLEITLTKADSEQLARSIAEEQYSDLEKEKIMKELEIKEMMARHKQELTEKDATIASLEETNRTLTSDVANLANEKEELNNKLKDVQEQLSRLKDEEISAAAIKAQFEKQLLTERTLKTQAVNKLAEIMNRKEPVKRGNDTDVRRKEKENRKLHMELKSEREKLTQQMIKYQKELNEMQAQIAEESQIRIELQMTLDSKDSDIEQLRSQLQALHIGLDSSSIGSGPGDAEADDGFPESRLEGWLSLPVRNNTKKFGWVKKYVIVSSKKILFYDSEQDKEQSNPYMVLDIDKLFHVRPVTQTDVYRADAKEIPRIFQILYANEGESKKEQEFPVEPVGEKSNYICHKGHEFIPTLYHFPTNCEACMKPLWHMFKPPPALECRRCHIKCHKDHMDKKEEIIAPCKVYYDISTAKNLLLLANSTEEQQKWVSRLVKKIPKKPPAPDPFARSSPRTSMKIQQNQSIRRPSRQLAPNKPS

With `Cc1cccc(COc2cccc(/C=C3\C(=O)NN(c4ccccc4)C3=O)c2)c1`, the inhibition entry in data set [1] was “Active”. For the same molecule, the inhibition entry in data set [2], in data set [5] and in data set [6] was “inactive” throughout. Moreover, in data set [3], the inhibition worked out at 50%. Also, the Activity entry in data set [4] is listed as “Non-Toxic”.

Broadly, the inhibition is the share of the control response that was lost under treatment.
